Measurements: ChEMBL document CHEMBL1142760, “Glycosidase inhibition by 1-glycosyl-4-phenyl triazoles” (Bioorg Med Chem Lett, 2005)

Legend:
[1] = biological target: T1, Alpha-galactosidase (Escherichia coli K-12) (UniProt P06720); assay: Percent inhibition against Escherichia coli galactosidase at 0.24 mM; n>=2
T1 sequence (whole entry): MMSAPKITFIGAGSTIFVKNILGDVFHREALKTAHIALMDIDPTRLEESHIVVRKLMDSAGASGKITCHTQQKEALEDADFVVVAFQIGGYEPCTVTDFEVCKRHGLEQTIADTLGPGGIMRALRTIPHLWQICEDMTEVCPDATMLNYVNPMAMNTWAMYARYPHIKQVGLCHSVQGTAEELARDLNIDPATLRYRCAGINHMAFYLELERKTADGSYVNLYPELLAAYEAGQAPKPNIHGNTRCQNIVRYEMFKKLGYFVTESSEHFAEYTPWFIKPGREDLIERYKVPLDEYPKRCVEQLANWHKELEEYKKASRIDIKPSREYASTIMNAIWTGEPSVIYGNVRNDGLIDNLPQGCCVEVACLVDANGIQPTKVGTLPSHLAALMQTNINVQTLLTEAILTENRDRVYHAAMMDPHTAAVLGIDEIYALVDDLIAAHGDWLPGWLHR

[2] = biological target: T1, Alpha-galactosidase (Escherichia coli K-12); assay: Percent inhibition against Escherichia coli galactosidase at 0.24 mM; n>=3

inhibition [1] [%] | inhibition [2] [%] | SMILES
< 20 |  | OC[C@@H]1O[C@@H](n2cc(-c3ccccc3)nn2)[C@@H](O)[C@@H](O)[C@@H]1O
 | < 20 | OC[C@H]1NC[C@H](O)[C@@H](O)[C@@H]1O
 | 30 | OC[C@@H]1O[C@@H](n2cc(-c3ccccc3)nn2)[C@@H](O)[C@@H](O)[C@H]1O
